We go through ten compounds from patent publication US4937371A, “Dihydroxynaphthalene derivatives” (Hoffmann-La Roche Inc., priority 1989, dated 1990).

Each structure is given as a SMILES string.

For test [1], the system named is Myeloperoxidase accumulation (rat acetic acid colitis model). Nature of the test: Acetic acid-induced colitis in rats, in vivo. The arrangement: species or system rat (Sprague-Dawley). An excerpt:
Acetic Acid-Induced Colitis in Rats, In Vivo
The rat acetic acid-induced colitis bioassay has been described by J. E. Krawisz, et al. in Amer. J. Proc. Gastro. Col. Rec. Surg. 31: 11-18 (1980), and by P. Sharon and W. F. Stenson in Gastroenterolgy 88: 55-63 (1985) and 86:453-460 (1984). Acetic acid-induced colitis is characterized by the movement of inflammatory cells into the colon, with the number of such cells in the mucosa being measured by the activity of myeloperoxidase, a marker enzyme for these cells. Positive desirable activity is indicated by a reduction in the high levels of myeloperoxidase caused by acetic acid. Male rats (Sprague-Dawley), weighing 150 to 300 g, were pretreated twice daily for two days with either the vehicle (water, or dimethylsulfoxide) or the test inhibitor compound suspended in water or dissolved in dimethylsulfoxide and orally administered. On the third day, the animals were dosed the same as on the previous two days, anesthetized with metofane, and 2 ml of 2.5% acetic acid was injected by syringe into the colonic lumen, followed immediately by 3 ml of air and a rinse consisting of 3 ml of phosphate-buffered saline (the acetic acid is Present in the lumen for a sufficient period to cause inflammation without producing severe necrosis or irreversible damage). The animals were administered a second dose of the test compound in the same amount about 16 hours later. Twenty four hours after the acetic acid treatment, the animals were sacrificed, the colonic mucosa was surgically removed and homogenized in an aqueous buffer at pH 6 with a Tissumizer or similar device, and myeloperoxidase was measured in the homogenate using o-phenylenediamine as a chromagen, as described by A. Voller, D. E. Bidwell and A. Bartlett in The Enzyme Linked Immunosorbent Assay (ELISA), Zoological Soc., London, 1979, pages 29-30. Control animals were pretreated with the vehicle and saline in place of acetic acid.

Test [2] deals with T1, Δ^5 -lipoxygenase from rat basophilic leukemia (RBL-1) cells (Rattus norvegicus, UniProt P12527).
T1 construct: The Δ^5 -lipoxygenase was derived from the supernatant fraction of lysed RBL-1 cells; endogenous in cells; host or cells: RBL-1 (rat basophilic leukemia) cells, 49,000 g supernatant of the homogenate
T1 sequence (P12527 1-673): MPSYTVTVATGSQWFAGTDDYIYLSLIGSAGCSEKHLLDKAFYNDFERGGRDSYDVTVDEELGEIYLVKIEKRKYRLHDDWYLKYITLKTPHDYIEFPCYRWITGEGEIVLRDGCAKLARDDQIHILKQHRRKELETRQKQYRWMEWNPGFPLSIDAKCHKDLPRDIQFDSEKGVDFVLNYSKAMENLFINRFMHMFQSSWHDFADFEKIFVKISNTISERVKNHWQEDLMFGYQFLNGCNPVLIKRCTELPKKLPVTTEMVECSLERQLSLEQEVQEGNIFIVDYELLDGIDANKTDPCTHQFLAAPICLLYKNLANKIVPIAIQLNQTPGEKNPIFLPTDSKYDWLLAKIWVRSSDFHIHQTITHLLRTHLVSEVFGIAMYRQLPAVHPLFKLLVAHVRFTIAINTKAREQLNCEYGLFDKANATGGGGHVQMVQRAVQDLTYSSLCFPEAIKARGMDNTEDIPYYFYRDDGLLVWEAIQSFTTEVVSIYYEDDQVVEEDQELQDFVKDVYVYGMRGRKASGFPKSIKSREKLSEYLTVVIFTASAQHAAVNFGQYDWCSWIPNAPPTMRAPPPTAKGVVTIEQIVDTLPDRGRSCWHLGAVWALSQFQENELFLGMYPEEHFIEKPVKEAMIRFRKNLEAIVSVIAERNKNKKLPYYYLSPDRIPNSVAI
Nature of the test: In vitro test for Δ^5-lipoxygenase inhibitors (RBL-1 cell supernatant). The format is biochemical. The conditions noted are these: Δ^5-lipoxygenase from RBL-1 cells; 10 min preincubation at 30° C.; 6.7 μM arachidonic acid; 37° C.; pH 7.2. Here is the method: IN VITRO TEST FOR Δ^5 -LIPOXYGENASE INHIBITORS
Compounds of formula I of the invention were tested for their effect on Δ^5 -lipoxygenase from rat basophilic leukemia (RBL-1) cells. The activity of this enzyme was determined by measuring the catalytic conversion of [1-^14 C]arachidonic acid to [1-^14 C-5-hydroperoxy- 6,8,11,14-eicosatetraenoic acid ([1-^14 C]-5-HPETE) which leads to the formation of the 5-hydroxy derivative ([1-^14 C]-5-HETE). The Δ^5 -lipoxygenase was derived from the supernatant fraction of lysed RBL-1 cells using a modification of the method previously described by Jakschik and Lee [Nature 287:51 (1980)]. Briefly, RBL-1 cells were lysed by homogenization in ice-cold buffer (50 mM Tris-HCl buffer, pH 7.2, containing 1 mM EDTA and 14 μM indomethacin). The homogenate was centrifuged at 4° C. and 49,000 g for 20 minutes and the resulting supernatant fraction was used as the source of Δ^5 -lipoxygenase. […] The ethereal extract containing [1-^14 C]-5-HETE and unreacted substrate analyzed by silica gel TLC using isooctane-methylethyl ketone acetic acid (100:9:1) as the developing solvent. […] The effect of inhibitors on Δ^5 -lipoxygenase activity was determined by preincubating the enzyme for 10 minutes at 30° C. in the presence or absence of various concentrations of the drug prior to addition of substrate. […]

Test [3] concerns LTB4 formation (Δ^5 -lipoxygenase (5-LO) pathway). Description: Rat peritoneal macrophage assay, in vitro: LTB4 formation. The test is classed as cell-based. Conditions: 0.5 h, rat peritoneal macrophages, 30 min incubation, A 23187-stimulated. From the text:
(§1) RAT PERITONEAL MACROPHAGE ASSAY, IN VITRO
(§2) The rat peritoneal macrophage assay measures the ability of a test compound to influence the release of arachidonic acid (AA) from phospholipid stores in the plasma membrane and the subsequent metabolism of AA by the Δ^5 -lipoxygenase (5-LO) and cyclooxygenase (CO) pathways to the final products excreted by the cells: leukotriene B4 (LTB4, from the 5-LO pathway) and prostaglandin E2 (PGE2, from the CO Pathway).
(§3) Macrophages were obtained from rats by peritoneal lavage with phosphate buffered saline minus Ca^+2 and Mg^+2 (PBS). Cells were washed 3 times with PBS and resuspended in Delbecco's Modified Eagle medium (Gibco Laboratories) containing L-glutamine and D-glucose and supplemented with 10% fetal calf serum. Cells were counted on a Coulter ZBA cell counter and then resuspended to a concentration of 4×10^6 cells/mL. […] The extracellular fluid was removed and ^14 C radioactivity released into this fluid from AA metabolism was measured by liquid scintillation spectroscopy. The amounts of LTB4 and PGE2 were measured in the extracellular fluid by radioimmunoassay with specific antisera. […]
(§4) This assay measures inhibition by the test compounds of the 5-LO and the CO pathways of AA metabolism and this inhibition is expressed as an IC50 for LTB4 and PGE2 formation, respectively.

Test [4] concerns PGE2 formation (cyclooxygenase (CO) pathway). Nature of the test: Rat peritoneal macrophage assay, in vitro: PGE2 formation. The format is cell-based. The conditions noted are these: 0.5 h, rat peritoneal macrophages, 30 min incubation, A 23187-stimulated.
Text: as §1, §2, §3, §4

The term IC50 denotes the concentration that inhibits the measured activity by half.

`CCCc1c(OCCc2ccc3cc(O)c(O)cc3c2)ccc(C(=O)O)c1O` [4-[2-(6,7-Dihydroxy-2-naphthalenyl)ethoxy]-2-hydroxy-3-propylbenzoic acid]: in test [1] (10 mg/kg p.o.), the “% Inhibition of Myeloperoxidase Accumulation” value (“% Inhibition” for short) was found to be 60 ± 13%. `CCCc1c(OCCCc2ccc3cc(O)c(O)cc3c2)ccc(C(=O)O)c1O` [4-[3-(6,7-Dihydroxy-2-naphthalenyl)propoxy]-2-hydroxy-3-propylbenzoic acid]: the “% Inhibition” value in test [1] (1 mg/kg p.o.) was 21 ± 4%.

Regarding `CCCc1c(OCCCCc2ccc3c(Cl)c(O)c(O)c(Cl)c3c2)ccc(C(=O)O)c1O` [4-[4-(5,8-Dichloro-6,7-dihydroxy-2-naphthalenyl)butoxy]-2-hydroxy-3-propylbenzoic acid], in test [1] (10 mg/kg p.o.), the “% Inhibition” value is 71 ± 7%. As for `CCCc1c(OCCCCc2ccc3cc(O)c(O)cc3c2)ccc(C(=O)O)c1O` [4-[4-(6,7-Dihydroxy-2-naphthalenyl)butoxy]-2-hydroxy-3-propylbenzoic acid], the IC50 in test [2] is 4.7 nM; in test [3], 3000 nM; in test [4], 2000 nM. In addition, the “% Inhibition” value in test [1] (3 mg/kg p.o.) turned out to be 82 ± 8%. As to `CCCc1c(OCCCCCc2ccc3cc(O)c(O)cc3c2)ccc(C(=O)O)c1O` [4-[5-(6,7-Dihydroxy-2-naphthalenyl)pentyloxy]-2-hydroxy-3-propylbenzoic acid], the “% Inhibition” value in test [1] (10 mg/kg p.o.) is 56 ± 11%. With `O=C(O)c1ccc(OCCCCCCc2ccc3cc(O)c(O)cc3c2)cc1O` [4-[6-(6,7-Dihydroxy-2-naphthalenyl)hexyloxy]-2-hydroxybenzoic acid], the “% Inhibition” value in test [1] (1 mg/kg p.o.) is listed as 65 ± 9%. For the compound `O=C(O)c1ccc(OCCCCCCc2ccc3cc(O)c(O)cc3c2)cc1` [4-[6-(6,7-Dihydroxy-2-naphthalenyl)hexyloxy]benzoic acid], the “% Inhibition” value in test [1] (10 mg/kg p.o.) stood at 68 ± 13%. In the case of `CCCc1c(OCCCCCCc2ccc3cc(O)c(O)cc3c2)ccc(C(=O)O)c1O` [4-[6-(6,7-dihydroxy-2-naphthalenyl)hexyloxy]-2-hydroxy-3-propylbenzoic acid], the “% Inhibition” value in test [1] (1 mg/kg p.o.) is 46 ± 12%. Consider `CCCc1c(OCCCCC(=O)c2ccc3cc(O)c(O)cc3c2)ccc(C(=O)O)c1O` [4-[[5-(6,7-Dihydroxy-2-naphthalenyl)-5-oxopentyl]oxy]-2-hydroxy-3-propylbenzoic acid], for which the “% Inhibition” value in test [1] (30 mg/kg p.o.) amounted to 80 ± 18%. For `CCCc1c(OCCCCCC(=O)c2ccc3cc(O)c(O)cc3c2)ccc(C(=O)O)c1O` [4-[[6-(6,7-dihydroxy-2-naphthalenyl)-6-oxohexyl]oxy]-2-hydroxy-3-propylbenzoic acid], the IC50 in test [3] worked out at 3000 nM; in test [4], 2000 nM.
